Measurements: patent US8361998B2, “Compounds and their use as IKACh blockers” (AstraZeneca AB, priority 2010, dated 2013)
Read-outs that look alike come from different tables or passages of the source.

Biological target: T1, human cardiac ion channel proteins hKir3.1/Kir3.4 (Homo sapiens, UniProt P48544+P48549)
T1 construct: expressed in transfected cells
T1 sequence (P48549 1-501): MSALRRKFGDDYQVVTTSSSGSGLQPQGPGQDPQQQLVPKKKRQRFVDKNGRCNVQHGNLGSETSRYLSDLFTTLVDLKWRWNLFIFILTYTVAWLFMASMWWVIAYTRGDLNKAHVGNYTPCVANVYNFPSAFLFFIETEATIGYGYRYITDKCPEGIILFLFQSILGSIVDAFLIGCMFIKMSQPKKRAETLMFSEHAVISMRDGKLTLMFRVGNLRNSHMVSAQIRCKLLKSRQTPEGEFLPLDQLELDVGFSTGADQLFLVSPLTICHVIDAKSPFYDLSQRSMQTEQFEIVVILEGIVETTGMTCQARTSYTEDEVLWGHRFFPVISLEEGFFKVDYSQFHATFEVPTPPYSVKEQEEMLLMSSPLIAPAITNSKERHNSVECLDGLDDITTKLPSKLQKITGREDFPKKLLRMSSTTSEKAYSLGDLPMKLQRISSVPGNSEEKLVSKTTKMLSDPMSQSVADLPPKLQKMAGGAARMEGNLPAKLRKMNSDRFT
T1 sequence (P48544 1-419): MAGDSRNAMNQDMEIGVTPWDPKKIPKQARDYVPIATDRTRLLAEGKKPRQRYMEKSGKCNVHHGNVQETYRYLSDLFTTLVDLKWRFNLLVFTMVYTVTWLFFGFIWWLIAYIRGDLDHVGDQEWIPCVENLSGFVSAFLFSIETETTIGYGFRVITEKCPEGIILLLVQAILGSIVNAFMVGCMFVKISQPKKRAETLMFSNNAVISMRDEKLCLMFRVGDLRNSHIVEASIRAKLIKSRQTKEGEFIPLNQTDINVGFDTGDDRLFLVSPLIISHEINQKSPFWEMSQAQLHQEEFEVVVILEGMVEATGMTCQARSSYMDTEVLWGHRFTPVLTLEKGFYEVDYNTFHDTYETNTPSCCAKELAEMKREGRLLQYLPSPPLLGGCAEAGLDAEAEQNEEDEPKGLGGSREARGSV
Experiment: Atomic Absorption Screening (AAS) Rb efflux assay of hKir3.1/Kir3.4 block, carbachol/high K+ stimulated, 10-pt or 7-pt CR
Type: cell-based
Conditions: AAS Rb efflux, CHO-K1 cells expressing hKir3.1/Kir3.4
How it was run: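 Mean IC50s derive from >4 replicates over 0.003–67 μmol/L (10-point) or >3 replicates over 0.037–27 μmol/L (7-point), both threefold steps. Rb-loaded (3 h, 37° C) CHO-K1 cells stably expressing hKir3.1/Kir3.4 saw compound for 5 min at RT before 10-min channel opening by carbachol 10 μM/KCl 20 mM final. Released Rb was quantified by atomic absorption.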

[1] = 10-pt CR (0.003 to 67 μmol/L), mean of >4 replicates, read-out: IKACh IC50 10-pt CR, AAS
[2] = 7-pt CR (0.037 to 27 μmol/L), mean of >3 replicates, read-out: IKACh IC50 7-pt CR, AAS

Row | IC50 [1] [µM] | IC50 [2] [µM] | SMILES
1 | 1.2 | – | CN(C(=O)c1ccc(F)c(Cl)c1)[C@H](CN1CC(O)(C2CC2)C1)C1CC1 [Example 9.2, (S)-3-Chloro-N-(1-cyclopropyl-2-(3-cyclopropyl-3-hydroxyazetidin-1-yl)ethyl)-4-fluoro-N-methylbenzamide]
2 | 3.1 | – | CN(C(=O)c1ccc(F)c(F)c1)[C@H](CN1CC(O)(C2CC2)C1)C1CC1 [Example 9.3, (S)-N-(1-Cyclopropyl-2-(3-cyclopropyl-3-hydroxyazetidin-1-yl)ethyl)-3,4-difluoro-N-methylbenzamide]
3 | 14 | – | CN(C(=O)c1ccc(C#N)cc1)[C@H](CN1CC(O)(C2CC2)C1)C1CC1 [Example 9.4, (S)-4-Cyano-N-(1-cyclopropyl-2-(3-cyclopropyl-3-hydroxyazetidin-1-yl)ethyl)-N-methylbenzamide]
4 | 1.3 | – | Cc1ccc(C(=O)N(C)[C@H](CN2CC(O)(C3CC3)C2)C2CC2)cc1C [Example 9.5, (S)-N-(1-Cyclopropyl-2-(3-cyclopropyl-3-hydroxyazetidin-1-yl)ethyl)-N,3,4-trimethylbenzamide]
5 | 2.8 | – | CC(C)[C@@H](CN1CC(C)(O)C1)N(C)C(=O)c1ccc(Br)cc1 [Example 9.6, (S)-4-Bromo-N-(1-(3-hydroxy-3-methylazetidin-1-yl)-3-methyl-butan-2-yl)-N-methylbenzamide]
6 | 8.6 | – | CC(C)[C@@H](CN1CC(C)(O)C1)N(C)C(=O)c1ccc(Cl)cc1 [Example 9.7, (S)-4-Chloro-N-(1-(3-hydroxy-3-methylazetidin-1-yl)-3-methyl-butan-2-yl)-N-methylbenzamide]
7 | 5.3 | – | CC(C)[C@@H](CN1CC(C)(O)C1)N(C)C(=O)c1ccc(F)c(C(F)(F)F)c1 [Example 9.8, (S)-4-Fluoro-N-(1-(3-hydroxy-3-methylazetidin-1-yl)-3-methyl-butan-2-yl)-N-methyl-3-(trifluoromethyl)benzamide]
8 | 11 | – | CN(C(=O)c1ccc(F)c(F)c1)[C@H](CN1CC(O)C1)C1CC1 [Example 9.9, (S)-N-(1-Cyclopropyl-2-(3-hydroxyazetidin-1-yl)ethyl)-3,4-difluoro-N-methylbenzamide]
9 | 12 | – | CN(C(=O)c1ccc(F)c(F)c1)[C@H](CN1CCC1)C1CC1 [Example 9.11, (S)-N-(2-(Azetidin-1-yl)-1-cyclopropylethyl)-3,4-difluoro-N-methylbenzamide]
10 | 6.1 | 3.7 | CC(C)[C@@H](CN1CC[C@H](O)C1)N(C)C(=O)c1ccc(F)cc1Cl [Example 10.1, (3S)-1-((S)-2-(2-Chloro-4-fluoro-N-methylbenzamido)-3-methylbutyl)-3-hydroxypyrrolidinium 2,3-dihydroxysuccinate]
11 | 5.6 | – | CCN(C(=O)c1ccc(Cl)cc1)[C@H](CN1CCC1)C(C)C [Example 11, (S)—N-(1-(Azetidin-1-yl)-3-methylbutan-2-yl)-4-chloro-N-ethylbenzamide]
12 | 19 | – | CC(C)[C@@H](CCN1CCCC1)N(C)C(=O)c1cccc(Cl)c1 [Example 13.3, (R)-3-Chloro-N-methyl-N-(4-methyl-1-(pyrrolidin-1-yl)pentan-3-yl)benzamide]
13 | 19 | – | Cc1cc(C(=O)N(C)[C@H](CCN2CCCC2)C(C)C)ccc1F [Example 13.4, (R)-4-Fluoro-N,3-dimethyl-N-(4-methyl-1-(pyrrolidin-1-yl)pentan-3-yl)benzamide]
14 | 18 | – | CCN(C(=O)c1ccc(F)c(C)c1)[C@H](CN1CCCC1)C(C)C [Example 15.2, (S)-N-Ethyl-4-fluoro-3-methyl-N-(3-methyl-1-(pyrrolidin-1-yl)butan-2-yl)benzamide]
15 | 5.7 | – | COCCN(C(=O)c1ccc(Cl)cc1)[C@H](CN1CCCC1)C(C)C [Example 15.4, (S)-4-Chloro-N-(2-methoxyethyl)-N-(3-methyl-1-(pyrrolidin-1-yl)butan-2-yl)benzamide]
16 | 2.3 | – | COCCN(C(=O)c1ccc(Br)cc1)[C@H](CN1CCCC1)C(C)C [Example 15.5, (S)-4-Bromo-N-(2-methoxyethyl)-N-(3-methyl-1-(pyrrolidin-1-yl)butan-2-yl)benzamide]
17 | 17 | – | CC(C)[C@@H](CN1CCCC(F)(F)C1)N(C)C(=O)c1ccc(F)c(Cl)c1 [Example 16.1, (S)-3-Chloro-N-(1-(3,3-difluoropiperidin-1-yl)-3-methylbutan-2-yl)-4-fluoro-N-methylbenzamide]
18 | 15 | – | CC(C)[C@@H](CN1CCCC(F)(F)C1)N(C)C(=O)c1ccc(F)c(C(F)(F)F)c1 [Example 16.2, (S)—N-(1-(3,3-Difluoropiperidin-1-yl)-3-methylbutan-2-yl)-4-fluoro-N-methyl-3-(trifluoromethyl)benzamide]
19 | 11 | – | Cc1ccc(C(=O)N(C)[C@H](CN2CCCC(F)(F)C2)C(C)C)cc1C [Example 16.3, (S)—N-(1-(3,3-Difluoropiperidin-1-yl)-3-methylbutan-2-yl)-N,3,4-trimethylbenzamide]
20 | 18 | – | COc1cc(C(=O)N(C)[C@H](CN2CCCC(F)(F)C2)C(C)C)ccc1C [Example 16.4, (S)—N-(1-(3,3-Difluoropiperidin-1-yl)-3-methylbutan-2-yl)-3-methoxy-N,4-dimethylbenzamide]
21 | 11 | – | CC(C)[C@@H](CN1CCCC(F)(F)C1)N(C)C(=O)c1ccc(Br)cc1 [Example 16.5, (S)-4-Bromo-N-(1-(3,3-difluoropiperidin-1-yl)-3-methylbutan-2-yl)-N-methyl-benzamide]
22 | – | 8 | CC(C)[C@@H](CN1CCCC1)N(C)C(=O)c1cc(F)cc(C(F)(F)F)c1 [Example 16.8, (S)-3-Fluoro-N-methyl-N-(3-methyl-1-(pyrrolidin-1-yl)butan-2-yl)-5-(trifluoromethyl)benzamide]
23 | 14 | 3.9 | CC(C)[C@@H](CN1CCCC1)N(C)C(=O)c1cc(F)cc(F)c1F [Example 16.9, (S)-2,3,5-Trifluoro-N-methyl-N-(3-methyl-1-(pyrrolidin-1-yl)butan-2-yl)benzamide]
24 | – | 11 | COc1cc(C(=O)N(C)[C@H](CN2CCCC2)C(C)C)ccc1F [Example 16.11, (S)-4-Fluoro-3-methoxy-N-methyl-N-(3-methyl-1-(pyrrolidin-1-yl)butan-2-yl)benzamide]

Row | SMILES | IC50 [1] [µM] | IC50 [2] [µM]
25 | Cc1ccc(C(=O)N(C)[C@H](CN2CCC2)C2CC2)cc1C [Example 9.10, N-[(1S)-2-(azetidin-1-yl)-1-cyclopropylethyl]-N,3,4-trimethylbenzamide] | 2.1 | –
26 | CN(C(=O)c1ccc(F)c(Cl)c1)[C@H](CN1CCCC1)C1CC1 [Example 13.1, (S)-3-Chloro-N-(1-cyclopropyl-2-(pyrrolidin-1-yl)ethyl)-4-fluoro-N-methylbenzamide] | 2.5 | –
27 | Cc1ccc(C(=O)N(C)[C@H](CN2CCCC2)C2CC2)cc1C [Example 13.2, (S)-N-(1-Cyclopropyl-2-(pyrrolidin-1-yl)ethyl)-N,3,4-trimethyl-benzamide] | 3.9 | –
28 | Cc1cc(C(=O)N(C)[C@H](CN2CCCC2)[C@@H](C)OC(C)(C)C)ccc1F [Example 14, N-((2R,3R)-3-Tert-butoxy-1-(pyrrolidin-1-yl)butan-2-yl)-4-fluoro-N,3-dimethylbenzamide] | 16 | –
29 | CCN(C(=O)c1ccc(Br)cc1)[C@H](CN1CCCC1)C(C)C [Example 15.1, (S)-4-Bromo-N-ethyl-N-(3-methyl-1-(pyrrolidin-1-yl)butan-2-yl)benzamide] | 11 | –
30 | CCN(C(=O)c1ccc(Cl)cc1)[C@H](CN1CCCC1)C(C)C [Example 15.3, (S)-4-Chloro-N-ethyl-N-(3-methyl-1-(pyrrolidin-1-yl)butan-2-yl)benzamide] | 7.4 | –
31 | CN(C(=O)c1ccc(Cl)cc1)C(C)(C)CN1CCCC1 [Example 16.6, 4-Chloro-N-methyl-N-(2-methyl-1-(pyrrolidin-1-yl)propan-2-yl)benzamide] | 20 | –
32 | CN(C(=O)c1ccc(Br)cc1)C(C)(C)CN1CCCC1 [Example 16.7, 4-Bromo-N-methyl-N-(2-methyl-1-(pyrrolidin-1-yl)propan-2-yl)benzamide] | 14 | –
33 | CC(C)[C@@H](CN1CCCC1)N(C)C(=O)c1cccc(C(F)(F)F)c1 [Example 16.10, (S)—N-Methyl-N-(3-methyl-1-(pyrrolidin-1-yl)butan-2-yl)-3-(trifluoromethyl)benzamide] | – | 2.6
